Source: patent US7550456B2, “Substituted aryl cycloalkanoyl derivatives and methods of their use” (Wyeth, priority 2003, dated 2009)
Counter-ions that a name gives are not always drawn.

biological target: T1, human hNET (Homo sapiens, UniProt P23975); assay: Norepinephrine (NE) uptake assay in MDCK-Net6 cells; assay type: cell-based; details: 1 μM test compound, [3H]NE uptake
T1 construct: expressed in transfected cells; host or cells: MDCK-Net6 (MDCK cells, stably transfected)
Summary of the method: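 Radiolabelled NE uptake was counted by scintillation after NaOH lysis, with 1 µM desipramine defining non-specific uptake. EC50 came from a logistic dose-response fit.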

T1 sequence (P23975 whole entry): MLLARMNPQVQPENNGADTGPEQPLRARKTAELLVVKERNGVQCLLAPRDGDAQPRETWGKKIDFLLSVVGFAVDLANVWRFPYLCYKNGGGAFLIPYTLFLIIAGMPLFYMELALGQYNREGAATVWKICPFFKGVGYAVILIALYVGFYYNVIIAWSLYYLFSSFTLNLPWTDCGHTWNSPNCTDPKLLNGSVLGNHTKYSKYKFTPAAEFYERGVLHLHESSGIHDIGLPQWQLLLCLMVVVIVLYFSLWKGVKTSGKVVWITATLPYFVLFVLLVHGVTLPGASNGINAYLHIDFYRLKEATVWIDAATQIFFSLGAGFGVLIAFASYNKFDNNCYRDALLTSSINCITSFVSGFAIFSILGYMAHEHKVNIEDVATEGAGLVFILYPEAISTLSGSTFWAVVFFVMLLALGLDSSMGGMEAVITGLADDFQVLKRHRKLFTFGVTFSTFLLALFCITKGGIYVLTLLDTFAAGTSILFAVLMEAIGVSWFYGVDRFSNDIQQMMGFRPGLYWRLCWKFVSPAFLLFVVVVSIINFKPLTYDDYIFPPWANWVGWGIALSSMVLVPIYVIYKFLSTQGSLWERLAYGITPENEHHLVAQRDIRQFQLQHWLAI

Compound | % Inhibition @ 1 μM (hNET)
1-[1-[4-methoxy-3-(trifluoromethoxy)phenyl]-2-(4-methylpiperazin-1-yl)ethyl]cyclohexanoldihydrochloride [Example 403] | 48%

same assay, conditions: 1 μM test compound, [3H]NE uptake, dihydrochloride, 1 µM

Compound | % Inhibition @ 1 μM (hNET)
OC1(C(CN2CCNCC2)c2cccc(OC(F)(F)F)c2)CCCCC1 (stereo in doubt) [Example 244, 1-{(1R)-2-piperazin-1-yl-1-[3-(trifluoromethoxy)phenyl]ethyl}cyclohexanol dihydrochloride] | 15.6%

same assay, conditions: 1 μM test compound, [3H]NE uptake, read-out: % Inhibition @ 1 μM (hNET)

Compound | inhibition at 1 µM
C[C@H](Oc1ccc(C(CN2CCN(C)CC2)C2(O)CCCCC2)cc1)c1ccccc1 (stereo partly drawn) [Example 470, 1-(2-(4-methylpiperazin-1-yl)-1-{4-[(1S)-1-phenylethoxy]phenyl}ethyl)cyclohexanol dihydrochloride] | 14%
C[C@@H]1CN(C[C@H](c2cccc(OC(F)(F)F)c2)C2(O)CCCCC2)CCN1C [Example 370, 1-{(1S)-2-[(3R)-3,4-dimethylpiperazin-1-yl]-1-[3-(trifluoromethoxy)phenyl]ethyl}cyclohexanol dihydrochloride] | 79%
OC1([C@H](CN2CCNCC2)c2cccc(Oc3ccccc3)c2)CCCCC1 (single isomer, unassigned) [Example 357, dihydrochloride] | 87%
OC1(C(CN2CCNCC2)c2ccc(OCCc3cccc4ccccc34)cc2)CCCCC1 (stereo not shown) [Example 464, 1-(1-{4-[2-(1-naphthyl)ethoxy]phenyl}-2-piperazin-1-ylethyl)cyclohexanol dihydrochloride] | 33%
OC1(C(CN2CCNCC2)c2cccc(OCc3ccccc3)c2)CCCCC1 (stereo not shown) [Example 104, 1-{1-[3-(benzyloxy)phenyl]-2-piperazin-1-ylethyl}cyclohexanol dihydrochloride] | 3%
CN1CCN(CC(c2ccc(O)c(OC(F)(F)F)c2)C2(O)CCCCC2)CC1 (stereo not shown) [Example 401, 4-[1-(1-hydroxycyclohexyl)-2-(4-methylpiperazin-1-yl)ethyl]-2-(trifluoromethoxy)phenol dihydrochloride] | 25%
CC[C@@H]1CN(C[C@H](c2cccc(OC(F)(F)F)c2)C2(O)CCCCC2)CCN1C [Example 352, 1-{(1S)-2-[(3R)-3-ethyl-4-methylpiperazin-1-yl]-1-[3-(trifluoromethoxy)phenyl]ethyl}cyclohexanol dihydrochloride] | 68%
OC1(C(CN2CCNCC2)c2ccc(OCCc3ccccc3)c(Cl)c2)CCCCC1 (stereo not shown) [Example 452, 1-{1-[3-chloro-4-(2-phenylethoxy)phenyl]-2-piperazin-1-ylethyl}cyclohexanol dihydrochloride] | 35%
OC1(C(CN2CCNCC2)c2ccc(OCc3ccccc3C(F)(F)F)c(Cl)c2)CCCCC1 (stereo not shown) [Example 421, 1-[1-(3-chloro-4-{[2-(trifluoromethyl)benzyl]oxy}phenyl)-2-piperazin-1-ylethyl]cyclohexanol dihydrochloride] | 59%
OC1(C(CN2CCCN(Cc3ccccc3)CC2)c2ccc(OC(F)(F)F)cc2)CCCCC1 (stereo not shown) [Example 302, 1-{2-(4-benzyl-1,4-diazepan-1-yl)-1-[4(trifluoromethoxy)phenyl]ethyl}cyclohexanol dihydrochloride] | 50%
N#Cc1ccccc1-c1ccc(C(CN2CCNCC2)C2(O)CCCCC2)cc1 (stereo not shown) [Example 290, 4′-[1-(1-hydroxycyclohexyl)-2-piperazin-1-ylethyl]-1,1′-biphenyl-2-carbonitrile dihydrochloride] | 36%
CN1CCN(CC(c2cccc(Oc3ccccc3)c2)C2(O)CCCCC2)CC1 (stereo not shown) [Example 312, 1-[2-(4-methylpiperazin-1-yl)-1-(3-phenoxyphenyl)ethy]cyclohexanol dihydrochloride] | 57.3%
OC1(C(CN2CCNCC2)c2cc(Br)c(OCc3ccccc3)c(Br)c2)CCCCC1 (stereo not shown) [Example 392, 1-{1-[4-(benzyloxy)-3,5-dibromophenyl]-2-piperazin-1-ylethyl}cyclohexanol dihydrochloride] | 68%
C[C@@H](Oc1ccc(C(CN2CCN(C)CC2)C2(O)CCCCC2)cc1)c1ccccc1 (stereo partly drawn) [Example 469, 1-(2-(4-methylpiperazin-1-yl)-1-{4-[(1R)-1-phenylethoxy]phenyl}ethyl)cyclohexanol dihydrochloride] | 12%
CN1CCN(CC(c2ccc(OCc3ccccc3)cc2)C2(O)CCC2)CC1 (stereo not shown) [Example 71, 1-[1-[4-(benzyloxy)phenyl]-2-(4-methylpiperazin-1-yl)ethyl]cyclobutanol dihydrochloride] | 25%
C[C@@H](c1ccccc1)N1CCN(C[C@H](c2cccc(OC(F)(F)F)c2)C2(O)CCCCC2)CC1 [Example 363, 1-{(1S)-2-{4-[(1S)-1-phenylethyl]piperazin-1-yl}-1-[3-(trifluoromethoxy)phenyl]ethyl}cyclohexanol dihydrochloride] | 42%

Compound | inhibition at 1 µM
CC1(C)CCCC1(O)C(CN1CCNCC1)c1cccc(OC(F)(F)F)c1 (stereo not shown) [Example 396, 2,2-dimethyl-1-{2-piperazin-1-yl-1-[3-(trifluoromethoxy)phenyl]ethyl}cyclopentanol dihydrochloride] | 33%
OC1(C(CN2CCNCC2)c2ccc(OCc3ccccc3)c(C(F)(F)F)c2)CCCCC1 (stereo not shown) [Example 263, 1-{1-[4-(benzyloxy)-3-(trifluoromethyl)phenyl]-2-piperazin-1-ylethyl}cyclohexanol dihydrochloride] | 31%
COc1cc(C(CN2CCNCC2)C2(O)CCCCC2)cc(Br)c1OCc1ccccc1 (stereo not shown) [Example 390, 1-{1-[4-(benzyloxy)-3-bromo-5-methoxyphenyl]-2-piperazin-1-ylethyl}cyclohexanol dihydrochloride] | 6%
CCOc1ccc(C(CN2CCN(C)CC2)C2(O)CCCCC2)cc1OC(F)(F)F (stereo not shown) [Example 405, 1-[1-[4-ethoxy-3-(trifluoromethoxy)phenyl]-2-(4-methylpiperazin-1-yl)ethyl]cyclohexanol dihydrochloride] | 27%
COc1ccc(C(CN2CCNCC2)C2(O)CCCCC2)cc1-c1ccc(C(F)(F)F)cc1 (stereo not shown) [Example 253, 1-{1-[6-methoxy-4′-(trifluoromethyl)-1,1′-biphenyl-3-yl]-2-piperazin-1-ylethyl}cyclohexanol dihydrochloride] | 19%
Cc1ccc(COc2ccc(C(CN3CCNCC3)C3(O)CCCCC3)cc2F)cc1 (stereo not shown) [Example 417, 1-(1-{3-fluoro-4-[(4-methylbenzyl)oxy]phenyl}-2-piperazin-1-ylethyl)cyclohexanol dihydrochloride] | 78%
OC1(C(CN2CCNCC2)c2cccc(OC(F)(F)F)c2)CCC1 (stereo not shown) [Example 46, 1-{2-piperazin-1-yl-1-[3-(trifluoromethoxy)phenyl]ethyl}cyclobutanol dihydrochloride] | 44%
COc1cccc(COc2ccc(C(CN3CCNCC3)C3(O)CCCCC3)cc2Cl)c1 (stereo not shown) [Example 454, 1-(1-{3-chloro-4-[(3-methoxybenzyl)oxy]phenyl}-2-piperazin-1-ylethyl)cyclohexanol dihydrochloride] | 99%
OC1([C@@H](CN2CCNCC2)c2cccc(Oc3ccccc3)c2)CCCCC1 (single isomer, unassigned) [Example 358, dihydrochloride] | 73%
CN1CCN(CC(c2cccc(OCc3ccccc3)c2)C2(O)CCC2)CC1 (stereo not shown) [Example 115, 1-[1-[3-(benzyloxy)phenyl]-2-(4-methylpiperazin-1-yl)ethyl]cyclobutanol dihydrochloride] | -10%
CN1CCN(CC(c2ccc(OCc3ccccc3C(F)(F)F)c(Cl)c2)C2(O)CCCCC2)CC1 (stereo not shown) [Example 422, 1-[1-(3-chloro-4-{[2-(trifluoromethyl)benzyl]oxy}phenyl)-2-(4-methylpiperazin-1-yl)ethyl]cyclohexanol dihydrochloride] | 20%
CN1CCN(CC(c2ccc(-c3ccc(F)cc3)cc2)C2(O)CCCCC2)CC1 (stereo not shown) [Example 180, 1-[1-(4′-fluoro-1,1′-biphenyl-4-yl)-2-(4-methylpiperazin-1-yl)ethyl]cyclohexanol dihydrochloride] | 47%
CN1CCN(CC(c2ccc(OCc3ccccc3)c(Br)c2)C2(O)CCCCC2)CC1 (stereo not shown) [Example 265, 1-[1-[4-(benzyloxy)-3-bromophenyl]-2-(4-methylpiperazin-1-yl)ethyl]cyclohexanol dihydrochloride] | 44%
CN1CCN(CC(c2ccc(OCc3ccc4ccccc4c3)cc2)C2(O)CCCCC2)CC1 (stereo not shown) [Example 433, 1-{2-(4-methylpiperazin-1-yl)-1-[4-(2-naphthylmethoxy)phenyl]ethyl}cyclohexanol] | 49%
OC1(C(CN2CCNCC2)c2cccc(-c3ccc(F)c(F)c3)c2)CCCCC1 (stereo not shown) [Example 147, 1-[1-(3′,4′-difluoro-1,1′-biphenyl-3-yl)-2-piperazin-1-ylethyl]cyclohexanol dihydrochloride] | 13%

same assay, conditions: 10 μM test compound (stated in the cell), [3H]NE uptake

Compound | inhibition at 10 µM
CN1CCN(CC(c2ccc(Oc3ccccc3)cc2)C2(O)CCCCC2)CC1 (stereo not shown) [Example 308, 1-[2-(4-methylpiperazin-1-yl)-1-(4-phenoxyphenyl)ethy]cyclohexanol dihydrochloride] | 35.9%

same assay, conditions: MDCK-Net6, read-out: % Inhibition @ 1 μM (hNET), 1 μM test compound, [3H]NE uptake

Compound | inhibition at 1 µM
OC1(C(CN2CCNCC2)c2cccc(-c3ccccc3F)c2)CCCCC1 (stereo not shown) [Example 140, 1-[1-(2′-fluoro-1,1′-biphenyl-3-yl)-2-piperazin-1-ylethyl]cyclohexanol maleate] | 52%
CN1CCN(CC(c2cccc(OC(F)(F)F)c2)C2(O)CCCCC2)CC1 (stereo not shown) [Example 24, 1-{2-(4-methylpiperazin-1-yl)-1-[3-(trifluoromethoxy)phenyl]ethyl}cyclohexanol dihydrochloride] | 85%

same assay, conditions: [3H]NE uptake, test range 1 to 10,000 nM

Compound | EC50
OC1(C(CN2CCNCC2)c2cccc(-c3ccccc3F)c2)CCCCC1 (stereo not shown) [Example 140, 1-[1-(2′-fluoro-1,1′-biphenyl-3-yl)-2-piperazin-1-ylethyl]cyclohexanol maleate] | 0.87 µM
